From ChEMBL document CHEMBL1201862, “PubChem BioAssay data set” (2004)
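Growth conditions: 96-well plates. Treatment: test compound, 48 hours, 5 concentrations. Analysis: linear interpolation between bracketing concentrations; unreached endpoints set to highest concentration. At the GI50, growth is halved.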 Active and inactive are the calls of the source. Cut-off read from the data, not from the text of the source: active = GI50 up to about 1.1 µM and inactive = higher.

Assays:
Assay in all cases: NCI-60 cell line screen, 48 h
UACC-257 = system: UACC-257
RXF 393 = system: RXF 393
786-0 = system: 786-0
CAKI-1 = system: CAKI-1
SR = system: SR
HT-29 = system: HT-29
HOP-92 = system: HOP-92
K562 = system: K562
HCC 2998 = system: HCC 2998
HL-60 = system: HL-60
COLO 205 = system: COLO 205
IGROV-1 = system: IGROV-1
A549 = system: A549
A498 = system: A498
TK-10 = system: TK-10
SF-295 = system: SF-295
UO-31 = system: UO-31
RPMI-8226 = system: RPMI-8226

Row | Structure (SMILES) | GI50 (UACC-257) | GI50 (RXF 393) | GI50 (786-0) | GI50 (CAKI-1) | GI50 (SR) | GI50 (HT-29) | GI50 (HOP-92) | GI50 (K562) | GI50 (HCC 2998) | GI50 (HL-60) | GI50 (COLO 205) | GI50 (IGROV-1) | GI50 (A549) | GI50 (A498) | GI50 (TK-10) | GI50 (SF-295) | GI50 (UO-31) | GI50 (RPMI-8226)
1 | COc1ccc(C2=Nc3ccccc3N=C(SC)C2)cc1 | 22.1 µM (inactive) | 62.5 µM (inactive) | 38.6 µM (inactive) | 46.8 µM (inactive) | 25.3 µM (inactive) | 38.5 µM (inactive) | 15.6 µM (inactive) | 20.8 µM (inactive) | 28.7 µM (inactive) | 16.3 µM (inactive) | 51.3 µM (inactive) | > 100 µM (inactive) | 95.1 µM (inactive) | > 100 µM (inactive) | 40.7 µM (inactive) | 77.3 µM (inactive) | 47.3 µM (inactive) | 
2 | N#CC(/C(=N/NC(=N)N)C(=O)Nc1ccccc1[N+](=O)[O-])c1nc(-c2ccc([N+](=O)[O-])cc2)cs1 (stereo unspecified) | > 100 µM (inactive) | > 100 µM (inactive) | > 100 µM (inactive) | > 100 µM (inactive) | > 100 µM (inactive) | > 100 µM (inactive) |  | > 100 µM (inactive) | > 100 µM (inactive) | > 100 µM (inactive) | > 100 µM (inactive) | > 100 µM (inactive) | > 100 µM (inactive) | > 100 µM (inactive) | > 100 µM (inactive) | > 100 µM (inactive) | > 100 µM (inactive) | > 100 µM (inactive)
3 | Cc1cc2c(=O)c3ccccc3[nH]c2c(C(=O)O)c1C | > 100 µM (inactive) | 67.1 µM (inactive) | > 100 µM (inactive) | > 100 µM (inactive) | > 100 µM (inactive) | > 100 µM (inactive) | < 0.01 µM (active) | > 100 µM (inactive) | > 100 µM (inactive) | 70.8 µM (inactive) | > 100 µM (inactive) | > 100 µM (inactive) | > 100 µM (inactive) | > 100 µM (inactive) |  | > 100 µM (inactive) | 43.9 µM (inactive) | > 100 µM (inactive)
4 | COc1cc2c(cc1OC)CC(=O)Nc1cc(OC)c(OC)cc1CC2 | > 53.7 µM (inactive) |  | 49.2 µM (inactive) | 68.2 µM (inactive) | 5.74 µM (inactive) | 37 µM (inactive) | > 80.9 µM (inactive) | 24 µM (inactive) | 97.1 µM (inactive) | 20.8 µM (inactive) | 38.2 µM (inactive) | > 85.9 µM (inactive) | 63 µM (inactive) | 44.5 µM (inactive) | > 77.4 µM (inactive) | 30.3 µM (inactive) | 61.9 µM (inactive) | 2.89 µM (inactive)
5 | CCC(=C(c1ccc(OCc2ccccc2)cc1)c1ccc(OCc2ccccc2)cc1)c1ccc(OC)cc1 |  | > 100 µM (inactive) | > 100 µM (inactive) | > 100 µM (inactive) | > 100 µM (inactive) | > 100 µM (inactive) | > 100 µM (inactive) | > 100 µM (inactive) | > 100 µM (inactive) | > 100 µM (inactive) | > 100 µM (inactive) | > 100 µM (inactive) | > 100 µM (inactive) |  | > 100 µM (inactive) | > 100 µM (inactive) | > 100 µM (inactive) | > 100 µM (inactive)
6 | CC(=O)Nc1ccc(S(=O)(=O)N/N=C/CN2C(=O)c3ccccc3C2=O)cc1 | > 100 µM (inactive) | 85.1 µM (inactive) | > 100 µM (inactive) | > 100 µM (inactive) | > 100 µM (inactive) | > 100 µM (inactive) |  | > 100 µM (inactive) | > 100 µM (inactive) | > 100 µM (inactive) | > 100 µM (inactive) | > 100 µM (inactive) | > 100 µM (inactive) | > 100 µM (inactive) | > 100 µM (inactive) | > 100 µM (inactive) | > 100 µM (inactive) | > 100 µM (inactive)
